Data from paper PMC12645437, “Orthogonal IMiD-Degron Pairs Induce Selective Protein Degradation in Cells” (ACS Chemical Biology, 2025).
“And” between values parts separate entries of the source, which are not always exact repeats. Equal entries are not always repeated. Where two headings read alike, the source gives them in different places.

What was measured:
[1] = molecular target: T1, Q147A mutant degron (ANQS) fused to EGFP (Homo sapiens, UniProt Q96SW2+Q9UKT9, Q147A); test: Ratiometric EGFP:mCherry flow cytometry degradation assay, 18 h; assay type: cell-based; conditions: Jurkat, read-out: DMax Q147A/%
T1 construct: pLVX-Sprout-IKZF3 130-189aa Q147A (ANQS); expressed in transfected cells

[2] = molecular target: T2, ZF-EGFP fusion protein with the HEIP, AEVK, WEIS, or WT ZF degron (Homo sapiens, UniProt Q9UKT9); test: Western blot for ZF-EGFP fusion protein; assay type: cell-based
T2 construct: The degron spans residues 130–189 of IKZF3; expressed in transfected cells; host or cells: Jurkat, lentivirally transduced, presorted mCherry+

[3] = molecular target: T3, endogenous IKZF3 in Jurkat cells (Homo sapiens, UniProt Q96SW2+Q9UKT9); test: Western blot for endogenous IKZF3; assay type: cell-based
T3 construct: endogenous in cells; host or cells: Jurkat (transduced with ZF-EGFP constructs, or untransduced)

[4] = tested on: Jurkat cells; test: TMTpro quantitative proteomics, 16 h; conditions: Jurkat whole cell extracts, TMTpro SPS-MS3
Procedure: (§1) Quantitative proteomics screens were carried out in untransduced Jurkat cells, embryonic stem cells (ESCs), and the multiple myeloma cell line, MM.1S. We used Jurkat cells, as our work up to this point had employed this cell line, and we selected ESCs and MM.1S cells as they express known CRBN neosubstrates, including IKZF1, IKZF3, RAB28, RNF166, SALL4, ZFP91, and ZNF827.
(§2) Proteomics - cell lysis and protein digestion
(§3) The viability of Jurkat cells was tested after 16-h treatment with corresponding chemicals
viable cells in each condition. Next, ~10^7 cells per condition were collected by centrifugation (1000 rpm), washed twice with ice-cold PBS, and lysed in RIPA buffer [50 mM HEPES pH 7.4, 150 mM NaCl, 1% sodium deoxycholate, 1% NP-40, 0.1% SDS, 10 mM sodium pyrophosphate, 10 mM β-glycerophosphate, 2.5 mM MgCl2, 200 µM TCEP, phosphatase and protease inhibitor cocktail (in-house)], to produce whole cell extracts. Whole-cell extracts were sonicated, and protein concentrations were determined using the Bradford assay. Protein extracts (100 µg) were subjected to disulfide bond reduction with 5 mM TCEP (10 min) and alkylation with 25 mM chloroacetamide (20 min). Methanol–chloroform precipitation was performed prior to protease digestion. In brief, four parts of neat methanol were added to each sample and vortexed, one part chloroform was added to the sample and vortexed, and finally, three parts water was added to the sample and vortexed. The sample was centrifuged at 8000 rpm for 5 min at room temperature and subsequently washed twice with 100% methanol. Samples were resuspended in 100 mM EPPS pH8.5 containing
0.1% RapiGest and digested at 37 °C for 6 h with trypsin at a 100:1 protein-to-protease ratio.
Samples were then subjected to TMTpro
labeling. The preparation of MM1S cell extracts was conducted using the same procedure as for
Jurkat cells. ESC cells were plated onto 6 cm dishes 24 hours prior to the chemical treatment.
Following the chemical treatment, the cells on the dish were washed with DPBS four times, after
which RIPA buffer was added directly to the dish, and the lysate was collected using a scraper.
The whole cell lysates were then processed similarly to the Jurkat cell lysates.
Proteomics - Tandem mass tag labeling
Proline-based reporter isobaric Tandem Mass Tag (TMTpro) labeling of dried peptide samples
resuspended in 100 mM EPPS pH 8.5, was carried out as follows. TMTpro reagent was added to
samples (100 µg peptide), along with acetonitrile, to achieve a final acetonitrile concentration of
approximately 30% (v/v). Following incubation at room temperature for 1 h, the labeling efficiency
of a small aliquot was tested. The reaction was then quenched with hydroxylamine to a final
concentration of 0.5% (v/v) for 15 min. The TMTpro-labeled samples were pooled together at a
1:1 ratio. The sample was vacuum centrifuged to near dryness and subjected to C18 solid-phase
The dried TMTpro-labeled sample was resuspended in 100 μL of 10 mM NH4HCO3 pH 8.0 and
fractionated using basic pH reverse phase HPLC 40. Briefly, samples were offline fractionated over
a 90 min run, into 96 fractions by high pH reverse-phase HPLC (Agilent LC1260) through an aeris
peptide xb-c18 column (Phenomenex; 250 mm × 3.6 mm) for total proteome with mobile phase A
containing 5% acetonitrile and 10 mM NH4HCO3, and mobile phase B containing 90% acetonitrile

[5] = tested on: MM.1S cells; test: TMTpro quantitative proteomics, 16 h; conditions: 1 μM
Procedure: as §1, §2, §3
viable cells in each condition. Next, ~10^7 cells per condition were collected by centrifugation (1000 rpm), washed twice with ice-cold PBS, and lysed in RIPA buffer [50 mM HEPES pH 7.4, 150 mM NaCl, 1% sodium deoxycholate, 1% NP-40, 0.1% SDS, 10 mM sodium pyrophosphate, 10 mM β-glycerophosphate, 2.5 mM MgCl2, 200 µM TCEP, phosphatase and protease inhibitor cocktail (in-house)], to produce whole cell extracts. Whole-cell extracts were sonicated, and protein concentrations were determined using the Bradford assay. Protein extracts (100 µg) were subjected to disulfide bond reduction with 5 mM TCEP (10 min) and alkylation with 25 mM chloroacetamide (20 min). Methanol–chloroform precipitation was performed prior to protease digestion. […]

[6] = tested on: library of 8380 IKZF3 degrons fused to EGFP in Jurkat cells; test: Pooled mutant ZF degron library screen (FACS EGFPlow vs EGFP+, NGS), 18 h; assay type: cell-based, human;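 on logFC: Log2 fold change of EGFPlow over EGFP+ representation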
[7] = molecular target: T4, endogenous IKZF1 in Jurkat cells (Homo sapiens, UniProt Q13422+Q96SW2); test: Endogenous IKZF1 immunostaining, fluorescent antibody flow cytometry assay; assay type: cell-based; conditions: 18 h
T4 construct: endogenous in cells; host or cells: Jurkat (untransduced for immunostaining; WEIS-EGFP-transduced for the blot)
Procedure: As we sought to screen a large number of mutant ZF degrons with different mutation combinations, we pursued a library screen approach similar to that previously employed by Sievers et al. and Jan et al. , Only the most promising compounds from the original set of 36 were used for the library screen. To help narrow the candidates, a subset of compounds was tested for endogenous IKZF1 degradation in Jurkat cells using a fluorescent antibody flow cytometry assay (Figure S5). […] Thalidomide and lenalidomide were also included as controls.
Endogenous IKZF1 Immunostaining
37 °C and 5% CO2. Following incubation, cells were stained with LIVE/DEAD™ Fixable Aqua Dead Cell Stain (Thermo) diluted 1000X in PBS for 30 min at room temperature and then incubated with Human TruStain FcX block (Biolegend) diluted 40X in PBS + 1% FBS (Gibco) for 10 min at room temperature. Intranuclear staining of IKZF1 was carried out using the Transcription Factor Buffer Set (BD Bioscience) according to the manufacturer's protocol and staining with IKZF1 AF488 antibody (clone R32-1149, BD Bioscience) diluted 40X for 30 minutes at room temperature. Cells were acquired on a Cytoflex S (Beckman Coulter) and data analysed using FlowJo 10.8.1 9 (BD).

[8] = protein AADAT isoform 2 (Q8N5Z0-2)
[9] = WT degron, residues 146/147/149/150/152/153/154/155/167: FQNQGASFL
[10] = degron residues 146/147/149/150/152/153/154/155/167: FADIGAAFL
[11] = degron residues 146/147/149/150/152/153/154/155/167: FADIGACFL
[12] = degron residues 146/147/149/150/152/153/154/155/167: FADIGADFL
[13] = degron residues 146/147/149/150/152/153/154/155/167: FADIGAEFL
[14] = degron residues 146/147/149/150/152/153/154/155/167: FREIGAPFL
[15] = degron residues 146/147/149/150/152/153/154/155/167: FYEVGACFL

T1 sequence (Q9UKT9 130-189 Q147A): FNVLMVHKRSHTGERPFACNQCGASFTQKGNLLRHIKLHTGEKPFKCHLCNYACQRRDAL
T1 sequence (Q96SW2 whole entry, the tested form may be a part): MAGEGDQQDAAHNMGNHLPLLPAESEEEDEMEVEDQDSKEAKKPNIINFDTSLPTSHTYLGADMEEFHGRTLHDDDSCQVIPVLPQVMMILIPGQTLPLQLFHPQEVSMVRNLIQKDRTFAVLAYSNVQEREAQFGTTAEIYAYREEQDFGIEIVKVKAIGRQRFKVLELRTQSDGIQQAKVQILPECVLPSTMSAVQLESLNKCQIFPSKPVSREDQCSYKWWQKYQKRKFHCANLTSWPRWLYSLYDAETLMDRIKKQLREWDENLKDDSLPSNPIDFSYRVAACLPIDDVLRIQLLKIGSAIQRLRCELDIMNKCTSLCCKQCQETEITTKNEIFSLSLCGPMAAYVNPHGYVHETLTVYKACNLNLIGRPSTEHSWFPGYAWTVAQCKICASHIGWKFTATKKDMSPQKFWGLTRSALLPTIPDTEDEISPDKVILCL
T1 sequence (Q16531 whole entry partner, the tested form may be a part): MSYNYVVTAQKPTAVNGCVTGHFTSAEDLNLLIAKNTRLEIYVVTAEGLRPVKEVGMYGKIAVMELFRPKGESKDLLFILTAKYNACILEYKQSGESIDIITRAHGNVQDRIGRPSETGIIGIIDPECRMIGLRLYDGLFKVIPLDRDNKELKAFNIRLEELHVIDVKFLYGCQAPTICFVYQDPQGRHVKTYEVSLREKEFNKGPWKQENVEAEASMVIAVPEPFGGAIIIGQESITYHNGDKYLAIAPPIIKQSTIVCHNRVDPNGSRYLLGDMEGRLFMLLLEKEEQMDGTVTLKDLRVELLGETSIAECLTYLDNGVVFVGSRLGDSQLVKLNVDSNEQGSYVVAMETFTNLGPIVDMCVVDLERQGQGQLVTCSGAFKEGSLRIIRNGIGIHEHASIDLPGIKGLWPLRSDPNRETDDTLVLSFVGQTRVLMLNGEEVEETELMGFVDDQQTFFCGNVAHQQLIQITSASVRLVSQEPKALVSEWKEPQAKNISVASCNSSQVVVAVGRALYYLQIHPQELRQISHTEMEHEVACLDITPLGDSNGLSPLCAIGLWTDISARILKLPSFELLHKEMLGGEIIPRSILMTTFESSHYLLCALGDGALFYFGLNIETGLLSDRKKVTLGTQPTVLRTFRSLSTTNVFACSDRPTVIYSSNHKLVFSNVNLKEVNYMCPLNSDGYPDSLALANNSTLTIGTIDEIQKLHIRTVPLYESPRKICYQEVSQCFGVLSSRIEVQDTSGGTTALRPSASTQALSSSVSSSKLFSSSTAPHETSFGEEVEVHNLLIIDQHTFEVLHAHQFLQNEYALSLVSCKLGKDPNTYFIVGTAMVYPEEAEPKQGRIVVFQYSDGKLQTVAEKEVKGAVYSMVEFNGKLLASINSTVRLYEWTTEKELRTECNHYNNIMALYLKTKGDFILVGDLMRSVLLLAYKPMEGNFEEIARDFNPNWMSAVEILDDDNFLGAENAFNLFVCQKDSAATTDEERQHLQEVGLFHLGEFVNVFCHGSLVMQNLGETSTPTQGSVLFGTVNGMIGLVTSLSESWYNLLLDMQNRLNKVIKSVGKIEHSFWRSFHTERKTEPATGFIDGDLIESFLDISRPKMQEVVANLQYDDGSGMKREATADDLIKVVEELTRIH
T3 sequence (Q9UKT9 whole entry): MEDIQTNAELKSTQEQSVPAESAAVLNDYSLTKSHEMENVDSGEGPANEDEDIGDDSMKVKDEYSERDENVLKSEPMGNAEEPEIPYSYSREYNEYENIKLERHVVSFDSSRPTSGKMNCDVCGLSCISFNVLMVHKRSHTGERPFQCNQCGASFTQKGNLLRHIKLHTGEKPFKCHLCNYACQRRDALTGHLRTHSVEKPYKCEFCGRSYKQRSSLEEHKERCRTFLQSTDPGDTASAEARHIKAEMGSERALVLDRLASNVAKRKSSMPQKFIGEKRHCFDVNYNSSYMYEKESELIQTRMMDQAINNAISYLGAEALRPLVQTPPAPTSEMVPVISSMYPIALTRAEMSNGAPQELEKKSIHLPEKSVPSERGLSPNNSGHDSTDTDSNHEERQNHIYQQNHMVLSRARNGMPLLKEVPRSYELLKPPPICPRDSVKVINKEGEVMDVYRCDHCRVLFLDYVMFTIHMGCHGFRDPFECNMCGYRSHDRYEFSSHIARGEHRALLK
T3 sequence (Q96SW2 whole entry): as the sequence (Q96SW2 whole entry, the tested form may be a part) above
T3 sequence (Q16531 whole entry partner): as the sequence (Q16531 whole entry partner, the tested form may be a part) above
T4 sequence (Q13422 whole entry): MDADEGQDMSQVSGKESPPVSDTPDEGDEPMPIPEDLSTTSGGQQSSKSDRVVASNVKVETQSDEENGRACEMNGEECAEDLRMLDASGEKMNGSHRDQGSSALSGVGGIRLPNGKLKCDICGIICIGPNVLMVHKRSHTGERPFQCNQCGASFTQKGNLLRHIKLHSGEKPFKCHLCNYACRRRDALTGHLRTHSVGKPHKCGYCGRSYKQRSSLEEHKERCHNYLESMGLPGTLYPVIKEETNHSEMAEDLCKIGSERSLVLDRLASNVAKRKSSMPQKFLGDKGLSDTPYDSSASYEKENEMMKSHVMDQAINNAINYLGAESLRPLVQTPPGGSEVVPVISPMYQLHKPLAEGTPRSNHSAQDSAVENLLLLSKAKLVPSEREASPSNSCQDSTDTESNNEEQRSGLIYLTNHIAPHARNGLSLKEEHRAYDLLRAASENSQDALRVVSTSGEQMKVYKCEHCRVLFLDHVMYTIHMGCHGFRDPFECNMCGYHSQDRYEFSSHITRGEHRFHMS
T4 sequence (Q96SW2 whole entry): as the sequence (Q96SW2 whole entry, the tested form may be a part) above
T4 sequence (Q16531 whole entry partner): as the sequence (Q16531 whole entry partner, the tested form may be a part) above
T2 sequence (Q96SW2 whole entry, the tested form may be a part): as the sequence (Q96SW2 whole entry, the tested form may be a part) above
T2 sequence (Q9UKT9 130-189): as the sequence (Q9UKT9 130-189 Q147A) above, with A18Q counted along it
T2 sequence (Q16531 2-1140, further chain): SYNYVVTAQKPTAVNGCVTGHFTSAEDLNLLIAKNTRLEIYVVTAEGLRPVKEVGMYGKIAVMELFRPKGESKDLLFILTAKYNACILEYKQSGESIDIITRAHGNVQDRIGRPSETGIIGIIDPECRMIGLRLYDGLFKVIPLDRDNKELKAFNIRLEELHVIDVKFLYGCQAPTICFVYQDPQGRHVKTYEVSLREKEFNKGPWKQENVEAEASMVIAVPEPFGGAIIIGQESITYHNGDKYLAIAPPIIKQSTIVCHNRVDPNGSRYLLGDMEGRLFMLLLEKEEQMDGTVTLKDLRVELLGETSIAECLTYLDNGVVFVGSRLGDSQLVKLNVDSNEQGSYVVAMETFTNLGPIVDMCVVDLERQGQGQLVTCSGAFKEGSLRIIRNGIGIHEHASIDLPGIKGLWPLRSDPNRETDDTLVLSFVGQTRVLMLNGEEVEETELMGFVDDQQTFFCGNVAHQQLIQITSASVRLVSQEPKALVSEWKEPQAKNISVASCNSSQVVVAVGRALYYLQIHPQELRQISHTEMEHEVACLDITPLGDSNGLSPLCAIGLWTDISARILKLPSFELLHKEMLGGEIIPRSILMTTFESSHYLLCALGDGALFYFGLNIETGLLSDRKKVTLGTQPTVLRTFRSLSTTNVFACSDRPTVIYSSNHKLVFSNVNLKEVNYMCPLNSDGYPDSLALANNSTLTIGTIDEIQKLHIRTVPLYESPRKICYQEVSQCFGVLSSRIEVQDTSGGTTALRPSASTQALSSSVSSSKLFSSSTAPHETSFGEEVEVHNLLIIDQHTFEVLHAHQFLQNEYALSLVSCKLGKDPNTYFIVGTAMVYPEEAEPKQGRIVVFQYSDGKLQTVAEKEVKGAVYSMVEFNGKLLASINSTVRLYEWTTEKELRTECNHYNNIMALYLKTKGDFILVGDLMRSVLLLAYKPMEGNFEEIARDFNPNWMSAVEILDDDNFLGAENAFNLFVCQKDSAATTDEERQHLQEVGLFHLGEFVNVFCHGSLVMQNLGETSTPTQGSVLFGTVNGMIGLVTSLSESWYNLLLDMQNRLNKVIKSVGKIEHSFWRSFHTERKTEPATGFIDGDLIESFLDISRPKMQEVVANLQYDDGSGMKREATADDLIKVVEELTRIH

## Nc1cccc2c1C(=O)N(C1CCC(=O)NC1=O)C2=O (centres unmarked) [Compound 2, pomalidomide]
[1]
  Dmax: 94%
[2]
  degradation of WT degron-tagged EGFP (Western blot): induced degradation of EGFP
[3]
  degradation of endogenous IKZF3 (Western blot): did cause IKZF3 degradation
  endogenous IKZF3 levels (Western blot): depleted endogenous IKZF3
[4]; protein A2M (P01023)
  Scaled value (to 150), replicate 01: 7.144
  Scaled value (to 150), replicate 02: 8.281
  Scaled value (to 150), replicate 03: 7.913
[4]; protein AAAS (Q9NRG9)
  Scaled value (to 150), replicate 01: 9.781
  Scaled value (to 150), replicate 02: 9.111
  Scaled value (to 150), replicate 03: 9.328
[4]; protein AACS (Q86V21)
  Scaled value (to 150), replicate 01: 9.6081
  Scaled value (to 150), replicate 02: 10.2184
  Scaled value (to 150), replicate 03: 9.9438
[4]; [8]
  Scaled value (to 150), replicate 01: 9.467
  Scaled value (to 150), replicate 02: 10.1133
  Scaled value (to 150), replicate 03: 9.458
[5]
  proteins significantly degraded (quantitative proteomics): IKZF1, IKZF3, and at least 6 other proteins were significantly degraded

## O=C1CCC(N2C(=O)c3ccc(N4CCOCC4)cc3C2=O)C(=O)N1 (centres unmarked) [Compound 22]
[1]; 18 h, Fig 2B
  Dmax: 76%
[6]; [9]
  Log2FC: -1.0370
[6]; [10]
  logFC: 2.037
[6]; [11]
  logFC: 0.5955
[6]; [12]
  logFC: -1.619
[6]; [13]
  logFC: -0.4533
[6]; degron residues 146/147/149/150/152/153/154/155/167: FFEIGACFL
  Log2FC: 3.8315
[6]; degron residues 146/147/149/150/152/153/154/155/167: FIPVGAPFL
  Log2FC: 3.937
[6]; [14]
  Log2FC: 3.9835 and 3.984
[6]; degron residues 146/147/149/150/152/153/154/155/167: FWDVGANFL
  Log2FC: 3.8903
[6]; degron residues 146/147/149/150/152/153/154/155/167: FWDVGAQFL
  Log2FC: 3.8513
[6]; degron residues 146/147/149/150/152/153/154/155/167: FWEIGAAFL
  Log2FC: 3.8306
[6]; degron residues 146/147/149/150/152/153/154/155/167: FWEIGAQFL
  Log2FC: 3.9298 and 3.93
[6]; degron residues 146/147/149/150/152/153/154/155/167: FWEVGAAFL
  Log2FC: 3.9041
[6]; degron residues 146/147/149/150/152/153/154/155/167: FWEVGAHFL
  Log2FC: 3.9186
[6]; degron residues 146/147/149/150/152/153/154/155/167: FWEVGAKFL
  Log2FC: 3.8571
[6]; degron residues 146/147/149/150/152/153/154/155/167: FWEVGANFL
  Log2FC: 3.8564
[6]; degron residues 146/147/149/150/152/153/154/155/167: FWPVGANFL
  Log2FC: 3.8155
[6]; degron residues 146/147/149/150/152/153/154/155/167: FWPVGAQFL
  Log2FC: 3.9190
[6]; degron residues 146/147/149/150/152/153/154/155/167: FYEIGAKFL
  Log2FC: 3.8391
[6]; degron residues 146/147/149/150/152/153/154/155/167: FYEIGATFL
  Log2FC: 4.0154 and 4.054
[6]; [15]
  Log2FC: 3.8457
[6]; degron residues 146/147/149/150/152/153/154/155/167: FYEVGANFL
  Log2FC: 3.8762
[6]; degron residues 146/147/149/150/152/153/154/155/167: FYEVGASFL
  Log2FC: 3.8615
[6]; degron residues 146/147/149/150/152/153/154/155/167: FYEVGATFL
  Log2FC: 4.1392 and 4.14
[6]; degron residues 146/147/149/150/152/153/154/155/167: LYEIGFRCL
  Log2FC: 3.9018
[7]
  degradation of endogenous IKZF1: did not induce degradation of endogenous IKZF1

## O=C1CCC(N2C(=O)c3cccc(NC(c4ccccc4)c4ccccc4)c3C2=O)C(=O)N1 (centres unmarked) [Compound 33]
[1]; 18 h, Fig 2B
  Dmax: 97%
[6]; [9]
  Log2FC: -1.2556
[6]; [10]
  logFC: -0.4744
[6]; [11]
  logFC: -0.1939
[6]; [12]
  logFC: -2.168
[6]; [13]
  logFC: -2.426
[6]; degron residues 146/147/149/150/152/153/154/155/167: FGPVGAFFL
  Log2FC: 3.1139
[6]; degron residues 146/147/149/150/152/153/154/155/167: FMEIGAAFL
  Log2FC: 3.1949
[6]; degron residues 146/147/149/150/152/153/154/155/167: FMEIGAPFL
  Log2FC: 3.1328
[6]; degron residues 146/147/149/150/152/153/154/155/167: FMEVGAPFL
  Log2FC: 3.1157
[6]; degron residues 146/147/149/150/152/153/154/155/167: FMNIGAPFL
  Log2FC: 3.2358 and 3.236
[6]; degron residues 146/147/149/150/152/153/154/155/167: FMPIGAPFL
  Log2FC: 3.0896
[6]; degron residues 146/147/149/150/152/153/154/155/167: FMPVGAAFL
  Log2FC: 3.0783
[6]; degron residues 146/147/149/150/152/153/154/155/167: FMPVGAPFL
  Log2FC: 3.0869
[6]; degron residues 146/147/149/150/152/153/154/155/167: FRDIGAPFL
  Log2FC: 3.3226 and 3.323
[6]; degron residues 146/147/149/150/152/153/154/155/167: FRDVGAPFL
  Log2FC: 3.2095
[6]; [14]
  Log2FC: 3.3123
[6]; degron residues 146/147/149/150/152/153/154/155/167: FREVGAPFL
  Log2FC: 3.3928 and 3.393
[6]; degron residues 146/147/149/150/152/153/154/155/167: FRPVGAPFL
  Log2FC: 3.2684 and 3.268
[6]; degron residues 146/147/149/150/152/153/154/155/167: FYEIGAQFL
  Log2FC: 3.1346
[6]; [15]
  Log2FC: 3.1049
[6]; degron residues 146/147/149/150/152/153/154/155/167: LCPIGFTCL
  Log2FC: 3.1410
[6]; degron residues 146/147/149/150/152/153/154/155/167: LCPIGFYCL
  Log2FC: 3.1590
[6]; degron residues 146/147/149/150/152/153/154/155/167: LYEIGFSCL
  Log2FC: 3.0997
[6]; degron residues 146/147/149/150/152/153/154/155/167: LYEIGFTCL
  Log2FC: 3.1905
[6]; degron residues 146/147/149/150/152/153/154/155/167: LYPIGFSCL
  Log2FC: 3.0902
[7]
  degradation of endogenous IKZF1: modest degradation of IKZF1
